Experimental data reported in ChEMBL document CHEMBL5303573, “Mapping human microbiome drug metabolism by gut bacteria and their genes” (Nature, 2019).

Assays:
[1] = The drug is tested on Edwardsiella tarda strain: ATCC23685 for biotransformation. The drug concentrations were measured before and after a 12-h incubation by liquid-chromatography-coupled mass spectrometry (LC–MS); details: 2 µM
[2] = The drug is tested on Dorea formicigenerans strain: ATCC27755 for biotransformation. The drug concentrations were measured before and after a 12-h incubation by liquid-chromatography-coupled mass spectrometry (LC–MS); details: 2 µM
[3] = The drug is tested on Collinsella aerofaciens strain: ATCC25986 for biotransformation. The drug concentrations were measured before and after a 12-h incubation by liquid-chromatography-coupled mass spectrometry (LC–MS); details: 2 µM
[4] = bacteroides thetaiotaomicron, 12 h, 2 µM
[5] = The drug is tested on Bacteroides sp. WH2 strain: WH2 for biotransformation. The drug concentrations were measured before and after a 12-h incubation by liquid-chromatography-coupled mass spectrometry (LC–MS); details: bacteroides sp. wh2, 12 h, 2 µM
[6] = The drug is tested on Clostridium scindens strain: ATCC35704 for biotransformation. The drug concentrations were measured before and after a 12-h incubation by liquid-chromatography-coupled mass spectrometry (LC–MS); details: 2 µM
[7] = The drug is tested on Bifidobacterium breve strain: DSM20213 for biotransformation. The drug concentrations were measured before and after a 12-h incubation by liquid-chromatography-coupled mass spectrometry (LC–MS); details: 2 µM
[8] = The drug is tested on Bacteroides ovatus strain: ATCC8483 for biotransformation. The drug concentrations were measured before and after a 12-h incubation by liquid-chromatography-coupled mass spectrometry (LC–MS); details: 2 µM
[9] = The drug is tested on Bacteroides vulgatus strain: ATCC8482 for biotransformation. The drug concentrations were measured before and after a 12-h incubation by liquid-chromatography-coupled mass spectrometry (LC–MS); details: phocaeicola vulgatus, 2 µM
[10] = bacteroides stercoris, 12 h, 2 µM
[11] = The drug is tested on Bacteroides finegoldii strain: DSM17565 for biotransformation. The drug concentrations were measured before and after a 12-h incubation by liquid-chromatography-coupled mass spectrometry (LC–MS); details: 2 µM
[12] = The drug is tested on Odoribacter splanchnicus strain: fecal isolate for biotransformation. The drug concentrations were measured before and after a 12-h incubation by liquid-chromatography-coupled mass spectrometry (LC–MS); details: 2 µM
[13] = The drug is tested on Ruminococcus gnavus strain: ATCC29149 for biotransformation. The drug concentrations were measured before and after a 12-h incubation by liquid-chromatography-coupled mass spectrometry (LC–MS); details: mediterraneibacter gnavus, 2 µM
[14] = limosilactobacillus reuteri cf48-3a, 12 h, 2 µM
[15] = The drug is tested on Bacteroides caccae strain: ATCC43185 for biotransformation. The drug concentrations were measured before and after a 12-h incubation by liquid-chromatography-coupled mass spectrometry (LC–MS); details: 2 µM
[16] = bacteroides thetaiotaomicron, 12 h, 2 µM; remark: listed apart in the source
[17] = The drug is tested on Enterococcus faecalis strain: V583 for biotransformation. The drug concentrations were measured before and after a 12-h incubation by liquid-chromatography-coupled mass spectrometry (LC–MS); details: 2 µM
[18] = bacteroides fragilis, 12 h, 2 µM
[19] = parabacteroides johnsonii, 12 h, 2 µM
Description: The drug is tested on Parabacteroides johnsonii strain: DSM18315 for biotransformation. The drug concentrations were measured before and after a 12-h incubation by liquid-chromatography-coupled mass spectrometry (LC–MS)

| Compound | Bacterial Biotransformation [1] | Bacterial Biotransformation [2] | Bacterial Biotransformation [3] | Bacterial Biotransformation [4] | Bacterial Biotransformation [5] | Bacterial Biotransformation [6] | Bacterial Biotransformation [7] | Bacterial Biotransformation [8] | Bacterial Biotransformation [9] | Bacterial Biotransformation [10] | Bacterial Biotransformation [11] | Bacterial Biotransformation [12] | Bacterial Biotransformation [13] | Bacterial Biotransformation [14] | Bacterial Biotransformation [15] | Bacterial Biotransformation [16] | Bacterial Biotransformation [17] | Bacterial Biotransformation [18] | Bacterial Biotransformation [19] |
| --- | --- | --- | --- | --- | --- | --- | --- | --- | --- | --- | --- | --- | --- | --- | --- | --- | --- | --- | --- |
| CCCc1nc2c(C)cc(-c3nc4ccccc4n3C)cc2n1Cc1ccc(-c2ccccc2C(=O)O)cc1 | Compound NOT metabolized | Compound NOT metabolized | Compound NOT metabolized | Compound metabolized | Compound metabolized | Compound NOT metabolized | Compound NOT metabolized | Compound metabolized | Compound metabolized | Compound metabolized | Compound NOT metabolized | Compound metabolized | Compound NOT metabolized | – | – | – | – | – | – |
| CCN(CC)CCNC(C(=O)OCCC(C)C)c1ccccc1.Cl.Cl (configuration not stated) | Compound NOT metabolized | Compound NOT metabolized | Compound NOT metabolized | – | Compound NOT metabolized | Compound NOT metabolized | – | Compound NOT metabolized | Compound NOT metabolized | – | Compound NOT metabolized | Compound NOT metabolized | Compound NOT metabolized | Compound NOT metabolized | Compound NOT metabolized | Compound NOT metabolized | Compound NOT metabolized | Compound NOT metabolized | – |
| CCCCCCOC(=O)/N=C(/N)c1ccc(NCc2nc3cc(C(=O)N(CCC(=O)OCC)c4ccccn4)ccc3n2C)cc1.CS(=O)(=O)O [DABIGATRAN ETEXILATE MESYLATE] | Compound NOT metabolized | Compound NOT metabolized | Compound NOT metabolized | Compound NOT metabolized | Compound NOT metabolized | Compound NOT metabolized | – | Compound NOT metabolized | Compound NOT metabolized | Compound NOT metabolized | Compound NOT metabolized | Compound NOT metabolized | Compound NOT metabolized | Compound NOT metabolized | Compound NOT metabolized | Compound NOT metabolized | Compound NOT metabolized | Compound NOT metabolized | – |
| Br.CN1CCC[C@@H]1Cc1c[nH]c2ccc(CCS(=O)(=O)c3ccccc3)cc12 [ELETRIPTAN HYDROBROMIDE] | Compound NOT metabolized | Compound NOT metabolized | Compound NOT metabolized | Compound NOT metabolized | Compound NOT metabolized | Compound NOT metabolized | – | Compound NOT metabolized | Compound NOT metabolized | Compound NOT metabolized | Compound NOT metabolized | Compound NOT metabolized | Compound NOT metabolized | Compound NOT metabolized | Compound NOT metabolized | – | Compound NOT metabolized | Compound NOT metabolized | – |
| CS(=O)(=O)O.OC(CCN1CCCCC1)(c1ccccc1)c1ccccc1 [PRIDINOL METHANESULFONATE] | Compound NOT metabolized | Compound NOT metabolized | Compound NOT metabolized | Compound NOT metabolized | Compound NOT metabolized | Compound NOT metabolized | Compound NOT metabolized | Compound NOT metabolized | Compound NOT metabolized | Compound NOT metabolized | Compound NOT metabolized | Compound NOT metabolized | Compound NOT metabolized | Compound NOT metabolized | Compound NOT metabolized | Compound NOT metabolized | – | Compound NOT metabolized | – |

Next, values leading:

| Bacterial Biotransformation [1] | Bacterial Biotransformation [2] | Bacterial Biotransformation [3] | Bacterial Biotransformation [4] | Bacterial Biotransformation [5] | Bacterial Biotransformation [6] | Bacterial Biotransformation [7] | Bacterial Biotransformation [8] | Bacterial Biotransformation [9] | Bacterial Biotransformation [10] | Bacterial Biotransformation [11] | Bacterial Biotransformation [12] | Bacterial Biotransformation [13] | Bacterial Biotransformation [14] | Bacterial Biotransformation [15] | Bacterial Biotransformation [16] | Bacterial Biotransformation [17] | Bacterial Biotransformation [18] | Bacterial Biotransformation [19] | Compound |
| --- | --- | --- | --- | --- | --- | --- | --- | --- | --- | --- | --- | --- | --- | --- | --- | --- | --- | --- | --- |
| Compound NOT metabolized | Compound NOT metabolized | Compound NOT metabolized | Compound metabolized | Compound NOT metabolized | – | Compound NOT metabolized | Compound metabolized | Compound metabolized | Compound metabolized | Compound NOT metabolized | Compound metabolized | Compound NOT metabolized | Compound NOT metabolized | Compound NOT metabolized | Compound metabolized | Compound NOT metabolized | Compound NOT metabolized | – | COc1ccc(CCN(C)CCCC(C#N)(c2ccc(OC)c(OC)c2)C(C)C)cc1OC (configuration not stated) |
| Compound NOT metabolized | Compound NOT metabolized | Compound NOT metabolized | Compound metabolized | Compound NOT metabolized | Compound NOT metabolized | Compound NOT metabolized | Compound metabolized | – | Compound NOT metabolized | Compound NOT metabolized | – | Compound NOT metabolized | Compound NOT metabolized | Compound NOT metabolized | – | Compound NOT metabolized | – | – | CN1CC(=O)N2[C@H](c3ccc4c(c3)OCO4)c3[nH]c4ccccc4c3C[C@@H]2C1=O |
| – | Compound NOT metabolized | Compound NOT metabolized | Compound NOT metabolized | Compound NOT metabolized | – | Compound NOT metabolized | Compound NOT metabolized | Compound NOT metabolized | Compound NOT metabolized | Compound NOT metabolized | Compound NOT metabolized | – | Compound NOT metabolized | – | Compound NOT metabolized | – | Compound NOT metabolized | – | CCN(CC)CCCC(C)Nc1c2ccc(Cl)cc2nc2ccc(OC)cc12 (configuration not stated) [QUINACRINE] |
| Compound NOT metabolized | Compound NOT metabolized | Compound NOT metabolized | – | Compound NOT metabolized | Compound NOT metabolized | Compound NOT metabolized | – | Compound NOT metabolized | Compound NOT metabolized | Compound NOT metabolized | – | Compound NOT metabolized | Compound NOT metabolized | Compound NOT metabolized | Compound NOT metabolized | Compound NOT metabolized | Compound NOT metabolized | – | Nc1c2c(nc3ccccc13)CCCC2 [TACRINE] |
| Compound NOT metabolized | Compound NOT metabolized | Compound NOT metabolized | – | Compound NOT metabolized | Compound NOT metabolized | Compound NOT metabolized | – | – | Compound NOT metabolized | Compound NOT metabolized | – | Compound NOT metabolized | Compound NOT metabolized | Compound NOT metabolized | Compound NOT metabolized | Compound NOT metabolized | Compound NOT metabolized | Compound NOT metabolized | c1ccc2[nH]c(-c3cscn3)nc2c1 [THIABENDAZOLE] |
